{"source": "patent US20230226099A1", "about": "“INHALABLE FORMULATION” (AALTO UNIVERSITY FOUNDATION SR, priority 2020, published 2023)", "key": {"[1]": {"system": "MDR-Acinetobacter baumannii", "test": "Antibiotic resistance profile of strain", "format": "cell-based", "conditions": "strain 5542"}, "Pseudomonas aeruginosa": {"system": "Pseudomonas aeruginosa", "test": "Antibiotic resistance profile of strains", "format": "cell-based"}, "[2]": {"system": "Pseudomonas aeruginosa PAO1", "test": "Coadministration with antibiotics, development of resistance (MIC over days)", "format": "cell-based", "excerpt": "MIC values were categorized in three groups according to the Clinical and Laboratory Standards Institute: susceptible, intermediate susceptible and resistant."}, "[3]": {"test": "Lung neutrophil infiltration and inflammation score after i.v. or i.n. administration", "format": "in vivo", "conditions": "BALB/c mice, different dosages, 24 hours", "excerpt": "Two different administration methods were use, intravenously (i.v.) or intranasally (i.n.). Pathological changes were graded according to severity (P=Present; 1=Minimal; 2=Mild; 3=Moderate)."}, "[4]": {"system": "MDR resistant clinical isolates", "test": "Coadministration with antibiotics in MDR resistant clinical isolates", "format": "cell-based", "conditions": "Amikacin, Cefepime, Ceftazidime and Meropenem"}, "[5]": {"system": "lipopolysaccharides of P. aeruginosa, strain PA10", "test": "Analytical ultracentrifuge sedimentation velocity analysis of interaction with LPS", "format": "binding, Pseudomonas aeruginosa", "conditions": "135 μM P[5]a and 35 μM LPS, UV absorbance at 305 nm", "protocol": "A clear initial peak of unbound P[5]a can be observer at low molecular weight (2260 Da), followed by a long and polydisperse collection of peaks, ranging from low molecular weight (S), to very high molecular weight (60.000 kDa) See Example 2.\nThe interaction of P[5]a with lipopolysaccharides of P. aeruginosa, strain PA10 was measured using AUC.\nAnalytical ultracentrifugation (AUC) is based on sedimentation of colloidal particles in a centrifugal field. During centrifugation particles move toward the bot-tom of the measuring cell. This movement leads to redistribution of particles along the measuring cell, which in turn can be expressed as a change in concentration along the measuring cell. The absorbance detector was used to follow the changes caused by centrifugation (absorbance is proportional to concentration). In simple words, in AUC the inventors measure how concentration changes during centrifugation, so they collect concentration profiles. Interaction between particles can be measured as a result of changes in the sedimentation profiles. […]\nThe spectra of both P[5]a and LPS from P. aeruginosa were first analysed separately (see FIGS. 11a and b). […] Because only the sedimentation of P[5]a was detected at 305 nm, the inventors were certain that any changes observed in the sedimentation profile, come from interactions between P[5]a and other particles. […]"}}, "data": [{"compound": "NCC[C@H](O)C(=O)N[C@@H]1C[C@H](N)[C@@H](O[C@H]2O[C@H](CN)[C@@H](O)[C@H](O)[C@H]2O)[C@H](O)[C@H]1O[C@H]1O[C@H](CO)[C@@H](O)[C@H](N)[C@H]1O", "note": "[Amikacin]", "values": [{"measurement": "Antibiotic resistance (category)", "setting": "[1]", "value": "Resistant to Amikacin, Amoxicillin-clavulanate, Ampicillin,"}, {"measurement": "Antibiotic resistance (category)", "setting": "Pseudomonas aeruginosa; strain 2798 (ATCC 2798)", "value": "Susceptible"}, {"measurement": "Antibiotic resistance (value)", "setting": "Pseudomonas aeruginosa; strain 5539", "value": "Susceptible to Amikacin 8 ug, intermediate to Cefepime 8 ug,"}, {"measurement": "Antibiotic resistance (value)", "setting": "Pseudomonas aeruginosa; strain 5542, MDR", "value": "MDR Intermediate susceptible to amikacin 16 ug, resistant to"}, {"measurement": "Antibiotic resistance (value)", "setting": "Pseudomonas aeruginosa; strain 5550, MDR", "value": "MDR Intermediate susceptible to amikacin 32 ug"}, {"measurement": "Antibiotic resistance (value)", "setting": "Pseudomonas aeruginosa; strain 5834, MDR", "value": "MDR Intermediate susceptible to amikacin 16 ug, resistant to"}]}, {"compound": "CC1(C)S[C@@H]2[C@H](NC(=O)[C@H](N)c3ccccc3)C(=O)N2[C@H]1C(=O)O", "note": "[Ampicillin]", "values": [{"measurement": "Antibiotic resistance (category)", "setting": "[1]", "value": "Resistant to Amikacin, Amoxicillin-clavulanate, Ampicillin,"}]}, {"compound": "CC[C@H]1OC(=O)[C@H](C)[C@@H](O[C@H]2C[C@@](C)(OC)[C@@H](O)[C@H](C)O2)[C@H](C)[C@@H](O[C@@H]2O[C@H](C)C[C@H](N(C)C)[C@H]2O)[C@](C)(O)C[C@@H](C)CN(C)[C@H](C)[C@@H](O)[C@]1(C)O", "note": "[Azithromycin]", "values": [{"measurement": "Antibiotic resistance (category)", "setting": "[1]", "value": "Resistant to Amikacin, Amoxicillin-clavulanate, Ampicillin,"}]}, {"compound": "C[C@H]1[C@H](NC(=O)/C(=N\\OC(C)(C)C(=O)O)c2csc(N)n2)C(=O)N1S(=O)(=O)O", "note": "[Aztreonam]", "values": [{"measurement": "Antibiotic resistance (category)", "setting": "Pseudomonas aeruginosa; strain 2798 (ATCC 2798)", "value": "Intermediate susceptible"}]}, {"compound": "CC1=C(C(=O)O)N2C(=O)[C@@H](NC(=O)[C@H](N)c3ccccc3)[C@H]2SC1", "note": "[Cefalexin]", "values": [{"measurement": "Antibiotic resistance (category)", "setting": "[1]", "value": "Resistant to Amikacin, Amoxicillin-clavulanate, Ampicillin,"}]}, {"compound": "CO/N=C(\\C(=O)N[C@@H]1C(=O)N2C(C(=O)[O-])=C(C[N+]3(C)CCCC3)CS[C@H]12)c1csc(N)n1", "note": "[Cefepime]", "values": [{"measurement": "MIC", "setting": "[2]; Pseudomonas aeruginosa, 96 h, PAO1, after four days, highest concentration of antibiotic included", "value": 128, "unit": "µg/mL"}]}, {"compound": "CC(C)(O/N=C(\\C(=O)N[C@@H]1C(=O)N2C(C(=O)[O-])=C(C[n+]3ccccc3)CS[C@H]12)c1csc(N)n1)C(=O)O", "note": "[Ceftazidime]", "values": [{"measurement": "Antibiotic resistance (value)", "setting": "Pseudomonas aeruginosa; strain 5539", "value": 8, "unit": "µg"}, {"measurement": "Antibiotic resistance (value)", "setting": "Pseudomonas aeruginosa; strain 5542, MDR", "value": 32, "unit": "µg"}, {"measurement": "Antibiotic resistance (value)", "setting": "Pseudomonas aeruginosa; strain 5827, MDR", "value": 64, "unit": "µg"}, {"measurement": "Antibiotic resistance (value)", "setting": "Pseudomonas aeruginosa; strain 5832, MDR", "value": 16, "unit": "µg"}, {"measurement": "Antibiotic resistance (value)", "setting": "Pseudomonas aeruginosa; strain 5834, MDR", "value": "cefepime 64 ug, ceftazidime 64 ug and meropenem 64 ug"}]}, {"compound": "C[C@@H](O)[C@H]1C(=O)N2C(C(=O)O)=C(S[C@@H]3CN[C@H](C(=O)Nc4cccc(C(=O)O)c4)C3)[C@H](C)[C@H]12", "note": "[Ertapenem]", "values": [{"measurement": "Antibiotic resistance (category)", "setting": "[1]", "value": "Resistant to Amikacin, Amoxicillin-clavulanate, Ampicillin,"}]}, {"compound": "C[C@@H](O)[C@H]1C(=O)N2C(C(=O)O)=C(S[C@@H]3CN[C@H](C(=O)N(C)C)C3)[C@H](C)[C@H]12", "note": "[Meropenem]", "values": [{"measurement": "Antibiotic resistance (category)", "setting": "[1]", "value": "Resistant to Amikacin, Amoxicillin-clavulanate, Ampicillin,"}, {"measurement": "Antibiotic resistance (value)", "setting": "Pseudomonas aeruginosa; strain 5539", "value": 8, "unit": "µg"}, {"measurement": "Antibiotic resistance (value)", "setting": "Pseudomonas aeruginosa; strain 5542, MDR", "value": 8, "unit": "µg"}, {"measurement": "Antibiotic resistance (value)", "setting": "Pseudomonas aeruginosa; strain 5827, MDR", "value": 16, "unit": "µg"}, {"measurement": "Antibiotic resistance (value)", "setting": "Pseudomonas aeruginosa; strain 5832, MDR", "value": 8, "unit": "µg"}, {"measurement": "Antibiotic resistance (value)", "setting": "Pseudomonas aeruginosa; strain 5834, MDR", "value": "cefepime 64 ug, ceftazidime 64 ug and meropenem 64 ug"}]}, {"compound": "C[N+](C)(C)CCOc1cc2c(OCC[N+](C)(C)C)cc1Cc1cc(OCC[N+](C)(C)C)c(cc1OCC[N+](C)(C)C)Cc1cc(OCC[N+](C)(C)C)c(cc1OCC[N+](C)(C)C)Cc1cc(OCC[N+](C)(C)C)c(cc1OCC[N+](C)(C)C)Cc1cc(OCC[N+](C)(C)C)c(cc1OCC[N+](C)(C)C)C2.[Br-].[Br-].[Br-].[Br-].[Br-].[Br-].[Br-].[Br-].[Br-].[Br-]", "note": "[P[5]a, 4,9,14,19,24,26,28,30,32,34-Deca[2-(trimethylaminio)ethoxy]hexacyclo[21.2.2.2^3,6.2^8,11.2^13,16.2^18,21]pentatriaconta1(25),3,5,8,10, 13,15,18,20,23,26,28,30,32,34-pentadecaene 10bromide]", "values": [{"measurement": "penetration of coadministered antibiotics", "setting": "[2]; PAO1", "value": "enhances the penetration"}, {"measurement": "development of resistance by the pathogen to the coadministered antibiotic", "setting": "[2]; coadministration with Aztreonam, Cefepime, Meropenem and Tobramycin, PAO1", "value": "greatly slowed"}, {"measurement": "tolerability (lung neutrophil infiltration and inflammation score)", "setting": "[3]", "value": "good tolerability"}, {"measurement": "penetration and efficacy of coadministered antibiotics", "setting": "[4]", "value": "enhances the penetration and efficacy"}, {"measurement": "interaction with LPS", "setting": "[5]", "value": "strong interaction"}]}, {"compound": "Cc1cc(NS(=O)(=O)c2ccc(N)cc2)no1", "note": "[Sulfamethoxazole]", "values": [{"measurement": "Antibiotic resistance (category)", "setting": "[1]", "value": "Resistant to Amikacin, Amoxicillin-clavulanate, Ampicillin,"}]}, {"compound": "CN(C)c1cc(NC(=O)CNC(C)(C)C)c(O)c2c1C[C@H]1C[C@H]3[C@H](N(C)C)C(O)=C(C(N)=O)C(=O)[C@@]3(O)C(O)=C1C2=O", "note": "[Tigecycline]", "values": [{"measurement": "Antibiotic resistance (category)", "setting": "[1]", "value": "Resistant to Amikacin, Amoxicillin-clavulanate, Ampicillin,"}]}, {"compound": "NC[C@H]1O[C@H](O[C@H]2[C@H](O)[C@@H](O[C@H]3O[C@H](CO)[C@@H](O)[C@H](N)[C@H]3O)[C@H](N)C[C@@H]2N)[C@H](N)C[C@@H]1O", "note": "[Tobramycin]", "values": [{"measurement": "Antibiotic resistance (category)", "setting": "[1]", "value": "Resistant to Amikacin, Amoxicillin-clavulanate, Ampicillin,"}, {"measurement": "Antibiotic resistance (category)", "setting": "Pseudomonas aeruginosa; strain 5539", "value": "resistant"}]}, {"compound": "CO/N=C(\\C(=O)N[C@@H]1C(=O)N2C(C(=O)O)=C(COC(N)=O)CS[C@H]12)c1ccco1", "note": "[cefurixome]", "values": [{"measurement": "Antibiotic resistance (category)", "setting": "Pseudomonas aeruginosa; strain 5539", "value": "resistant"}]}, {"compound": "O=C(O)c1cn(C2CC2)c2cc(N3CCNCC3)c(F)cc2c1=O", "note": "[ciprofloxacin]", "values": [{"measurement": "Antibiotic resistance (category)", "setting": "Pseudomonas aeruginosa; strain 5539", "value": "resistant"}, {"measurement": "Antibiotic resistance (category)", "setting": "Pseudomonas aeruginosa; strain 5832, MDR", "value": "resistant"}]}, {"compound": "Amoxicillin-clavulanate", "values": [{"measurement": "Antibiotic resistance (category)", "setting": "[1]", "value": "Resistant to Amikacin, Amoxicillin-clavulanate, Ampicillin,"}]}, {"compound": "Colistin", "values": [{"measurement": "Antibiotic resistance (category)", "setting": "Pseudomonas aeruginosa; strain 2798 (ATCC 2798)", "value": "Susceptible"}]}, {"compound": "Piperacillin-tazobactam", "values": [{"measurement": "Antibiotic resistance (category)", "setting": "[1]", "value": "Resistant to Amikacin, Amoxicillin-clavulanate, Ampicillin,"}, {"measurement": "Antibiotic resistance (category)", "setting": "Pseudomonas aeruginosa; strain 5539", "value": "resistant"}]}]}
